Data on seven compounds can be found in patent US20230091225A1, “Bifunctional chimeric heterocyclic compounds for targeted degradation of androgen receptors and use thereof” (HINOVA PHARMACEUTICALS INC., priority 2019, published 2023).

This assay has as its target T1, androgen receptor (AR) (Homo sapiens, UniProt P10275).
T1 sequence (P10275 1-920): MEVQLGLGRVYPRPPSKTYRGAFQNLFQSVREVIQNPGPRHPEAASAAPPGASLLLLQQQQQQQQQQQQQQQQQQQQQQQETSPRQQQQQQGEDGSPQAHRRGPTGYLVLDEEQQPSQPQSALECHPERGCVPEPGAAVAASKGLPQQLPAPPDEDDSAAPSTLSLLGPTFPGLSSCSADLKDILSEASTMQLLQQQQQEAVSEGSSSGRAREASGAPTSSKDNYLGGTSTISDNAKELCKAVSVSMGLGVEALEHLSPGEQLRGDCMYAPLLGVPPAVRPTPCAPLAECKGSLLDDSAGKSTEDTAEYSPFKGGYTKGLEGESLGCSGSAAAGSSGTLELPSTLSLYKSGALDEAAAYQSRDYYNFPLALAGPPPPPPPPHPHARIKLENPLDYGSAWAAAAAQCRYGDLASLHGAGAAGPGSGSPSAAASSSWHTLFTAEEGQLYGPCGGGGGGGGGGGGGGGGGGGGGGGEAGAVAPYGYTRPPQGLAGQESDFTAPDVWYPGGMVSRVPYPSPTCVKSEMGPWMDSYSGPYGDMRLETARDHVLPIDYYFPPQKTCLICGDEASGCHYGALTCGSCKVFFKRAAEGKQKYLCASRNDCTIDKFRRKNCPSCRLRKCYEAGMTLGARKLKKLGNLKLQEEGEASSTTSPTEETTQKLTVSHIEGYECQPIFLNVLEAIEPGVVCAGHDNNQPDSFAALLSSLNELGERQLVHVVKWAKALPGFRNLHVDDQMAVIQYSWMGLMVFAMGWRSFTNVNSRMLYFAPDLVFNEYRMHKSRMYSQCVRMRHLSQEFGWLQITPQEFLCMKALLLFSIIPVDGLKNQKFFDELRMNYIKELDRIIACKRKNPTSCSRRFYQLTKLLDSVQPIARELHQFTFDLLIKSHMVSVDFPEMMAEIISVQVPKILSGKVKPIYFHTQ
The assay is described as follows: Degradation of androgen receptor (AR) protein in VCaP cells by Western blot. It counts as cell-based. The note with it: percentage of degraded AR at 100 nM, VCaP cells, 16 h. The method, boiled down: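 VCaP cells (5×10^5/well) were seeded overnight, then treated in duplicate for 16 h with compound in 0.1% DMSO final. Lysates (30 μg protein) were immunoblotted for AR (D6F11) with β-actin as loading control, detected by ECL chemiluminescence.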

Structures are written as SMILES.

For orientation: inhibition means the share of the control response that was lost under treatment. A lower inhibition goes with little suppression.

The compound `N#Cc1ccc(O[C@H]2CC[C@H](NC(=O)c3cnc(N4C[C@@H]5[C@@H](CN6CCN(c7ccc8c(c7)C(=O)N(C7CCC(=O)NC7=O)C8=O)CC6)[C@@H]5C4)cn3)CC2)cc1Cl` (stereo partly drawn) [Compound 177, N-((1r,4R)-4-(3-chloro-4-cyanophenoxy)cyclohexyl)-5-((1R,5S,6S)-6-((4-(2-(2,6-dioxopiperidin-3-yl)-1,3-dioxoisoindolin-5-yl)piperazin-1-yl)methyl)-3-azabicyclo[3.1.0]hexan-3-yl)pyrazine-2-carboxamide] displayed an inhibition at 0.1 µM of 50 to 79%.

Regarding `N#Cc1ccc(OC2CCC(NC(=O)c3ccc(N4C[C@@H]5C(CN6CCN(c7cc8c(cc7F)C(=O)N(C7CCC(=O)NC7=O)C8=O)CC6)[C@@H]5C4)nn3)CC2)cc1Cl` (stereo partly drawn) [Compound 178, N-((1r,4R)-4-(3-chloro-4-cyanophenoxy)cyclohexyl)-6-((1R,5S,6S)-6-((4-(2-(2,6-dioxopiperidin-3-yl)-6-fluoro-1,3-dioxoisoindolin-5-yl)piperazin-1-yl)methyl)-3-azabicyclo[3.1.0]hexan-3-yl)pyridazine-3-formamide], the “% degradation” value is on record as “B (79%-50%)”.

As for `N#Cc1ccc(O[C@H]2CC[C@H](NC(=O)c3ccc(N4C[C@@H]5[C@@H](CN6CCN(c7ccc8c(c7)C(=O)N(C7CCC(=O)NC7=O)C8=O)CC6)[C@@H]5C4)nn3)CC2)cc1Cl` (stereo partly drawn) [Compound 179, N-((1r,4R)-4-(3-chloro-4-cyanophenoxy)cyclohexyl)-6-((1R,5S,6S)-6-((4-(2-(2,6-dioxopiperidin-3-yl)-1,3-dioxoisoindolin-5-yl)piperazin-1-yl)methyl)-3-azabicyclo[3.1.0]hexan-3-yl)pyridazine-3-formamide], the inhibition at 0.1 µM lay in the range of 25 to 49%.

`N#Cc1ccc(O[C@H]2CC[C@H](NC(=O)c3ccc(N4CCC(CN5CC6(CCN(c7cc8c(cc7F)C(=O)N(C7CCC(=O)NC7=O)C8=O)C6)C5)CC4)nn3)CC2)cc1Cl` (stereo partly shown) [Compound 180, N-((1r,4r)-4-(3-chloro-4-cyanophenoxy)cyclohexyl)-6-(4-((6-(2-(2,6-dioxopiperidin-3-yl)-6-fluoro-1,3-dioxoisoindolin-5-yl)-2,6-diazaspiro[3.4]octan-2-yl)methyl)piperidin-1-yl)pyridazine-3-formamide]: the inhibition at 0.1 µM is greater than 80%.

`CC1(C)C(NC(=O)c2ccc(N3C[C@@H]4C(CN5CCN(c6cc7c(cc6F)C(=O)N(C6CCC(=O)NC6=O)C7=O)CC5)[C@@H]4C3)nn2)C(C)(C)C1Oc1ccc(C#N)c(Cl)c1` (stereo partly drawn) [Compound 181, N-((1r,3R)-3-(3-chloro-4-cyanophenoxy)-2,2,4,4-tetramethylcyclobutyl)-6-((1R,5S,6S)-6-((4-(2-(2,6-dioxopiperidin-3-yl)-6-fluoro-1,3-dioxoisoindolin-5-yl)piperazin-1-yl)methyl)-3-azabicyclo[3.1.0]hexan-3-yl)pyridazine-3-formamide]: the “% degradation” value is given as “B (79%-50%)”.

`CC1(C)[C@H](NC(=O)c2cnc(N3C[C@@H]4[C@@H](CN5CCN(c6cc7c(cc6F)C(=O)N(C6CCC(=O)NC6=O)C7=O)CC5)[C@@H]4C3)cn2)C(C)(C)[C@H]1Oc1ccc(C#N)c(Cl)c1` (stereo partly drawn) [Compound 182, N-((1r,3R)-3-(3-chloro-4-cyanophenoxy)-2,2,4,4-tetramethylcyclobutyl)-5-((1R,5S,6S)-6-((4-(2-(2,6-dioxopiperidin-3-yl)-6-fluoro-1,3-dioxoisoindolin-5-yl)piperazin-1-yl)methyl)-3-azabicyclo[3.1.0]hexan-3-yl)pyrazine-2-carboxamide] registered an inhibition at 0.1 µM of 50 to 79%.

On to `N#Cc1ccc(O[C@H]2CC[C@H](NC(=O)c3ccc(N4CCC5(CN(CC6CCN(c7cc8c(cc7F)C(=O)N(C7CCC(=O)NC7=O)C8=O)CC6)C5)C4)nn3)CC2)cc1Cl` (stereo partly shown) [Compound 183, N-((1r,4r)-4-(3-chloro-4-cyanophenoxy)cyclohexyl)-6-(2-((1-(2-(2,6-dioxopiperidin-3-yl)-6-fluoro-1,3-dioxoisoindolin-5-yl)piperidine-4-yl)methyl)-2,6-diazaspiro[3.4]octan-6-yl)pyridazine-3-formamide], for which the inhibition at 0.1 µM is greater than 80%.
